Results from ChEMBL document CHEMBL4507305, “Data for DCP probe TP-024” (2021).

Assays:
[1] = biological target: Calcium-dependent protein kinase 1 (Plasmodium falciparum) (UniProt P62344); conditions: Compound concentration 1000.0 nM
[2] = biological target: Serine/threonine-protein kinase WNK3 (Homo sapiens) (UniProt Q9BYP7); conditions: Compound concentration 1000.0 nM
[3] = biological target: Insulin-like growth factor 1 receptor (Homo sapiens) (UniProt P08069); conditions: Compound concentration 1000.0 nM
[4] = biological target: 3-phosphoinositide-dependent protein kinase 1 (Homo sapiens) (UniProt O15530); conditions: Compound concentration 1000.0 nM
[5] = biological target: Phosphatidylinositol 4,5-bisphosphate 3-kinase catalytic subunit alpha isoform (Homo sapiens) (UniProt P42336); conditions: Compound concentration 1000.0 nM
[6] = biological target: Ribosomal protein S6 kinase alpha-6 (Homo sapiens) (UniProt Q9UK32); conditions: Compound concentration 1000.0 nM
[7] = biological target: Mitogen-activated protein kinase kinase kinase 12 (Homo sapiens) (UniProt Q12852); conditions: Compound concentration 1000.0 nM
[8] = biological target: SRSF protein kinase 1 (Homo sapiens) (UniProt Q96SB4); conditions: Compound concentration 1000.0 nM
[9] = biological target: Ribosomal protein S6 kinase beta-1 (Homo sapiens) (UniProt P23443); conditions: Compound concentration 1000.0 nM
[10] = biological target: Serine/threonine-protein kinase tousled-like 2 (Homo sapiens) (UniProt Q86UE8); conditions: Compound concentration 1000.0 nM
[11] = biological target: Alpha-1D adrenergic receptor (Homo sapiens) (UniProt P25100); conditions: Compound concentration 10.0 uM
[12] = biological target: Testis-specific serine/threonine-protein kinase 3 (Homo sapiens) (UniProt Q96PN8); conditions: Compound concentration 1000.0 nM
[13] = test system: Tyrosine-protein kinase ABL1 (Homo sapiens), P00519 [T315I]; conditions: Compound concentration 1000.0 nM
[14] = biological target: Serine/threonine-protein kinase Nek4 (Homo sapiens) (UniProt P51957); conditions: Compound concentration 1000.0 nM
[15] = test system: Mast/stem cell growth factor receptor Kit (Homo sapiens), P10721 [V559D,V654A]; conditions: Compound concentration 1000.0 nM
[16] = biological target: Inhibitor of nuclear factor kappa-B kinase subunit beta (Homo sapiens) (UniProt O14920); conditions: Compound concentration 1000.0 nM
[17] = biological target: Alpha-2C adrenergic receptor (Homo sapiens) (UniProt P18825); conditions: Compound concentration 10.0 uM
[18] = biological target: 5-hydroxytryptamine receptor 5A (Homo sapiens) (UniProt P47898); conditions: Compound concentration 10.0 uM
[19] = biological target: Serine/threonine-protein kinase DCLK1 (Homo sapiens) (UniProt O15075); conditions: Compound concentration 1000.0 nM
[20] = biological target: cAMP-dependent protein kinase catalytic subunit PRKX (Homo sapiens) (UniProt P51817); conditions: Compound concentration 1000.0 nM
[21] = biological target: Casein kinase I isoform delta (Homo sapiens) (UniProt P48730); conditions: Compound concentration 1000.0 nM
[22] = biological target: Ribosomal protein S6 kinase alpha-2 (Homo sapiens) (UniProt Q15349); conditions: Compound concentration 1000.0 nM
[23] = biological target: Serine/threonine-protein kinase Nek3 (Homo sapiens) (UniProt P51956); conditions: Compound concentration 1000.0 nM
[24] = biological target: Serine/threonine-protein kinase B-raf (Homo sapiens) (UniProt P15056); conditions: Compound concentration 1000.0 nM
[25] = biological target: T1, GABA-A receptor; anion channel (Rattus norvegicus) (UniProt O09028+P15431+P18506+P18508+P19969+P20236+P23574+P23576+P28471+P28473+P30191+P62813+P63079+P63138+Q91ZM7+Q9ES14); conditions: Compound concentration 10.0 uM
[26] = biological target: Membrane-associated tyrosine- and threonine-specific cdc2-inhibitory kinase (Homo sapiens) (UniProt Q99640); conditions: Compound concentration 1000.0 nM
[27] = biological target: Tyrosine-protein kinase Srms (Homo sapiens) (UniProt Q9H3Y6); conditions: Compound concentration 1000.0 nM
[28] = biological target: T1, GABA-A receptor; anion channel (Rattus norvegicus); conditions: Compound concentration 10.0 uM; remark: listed apart in the source
[29] = biological target: ALK tyrosine kinase receptor (Homo sapiens) (UniProt Q9UM73); conditions: Compound concentration 1000.0 nM
[30] = biological target: Serine/threonine-protein kinase TNNI3K (Homo sapiens) (UniProt Q59H18); conditions: Compound concentration 1000.0 nM
[31] = biological target: Ribosomal protein S6 kinase alpha-3 (Homo sapiens) (UniProt P51812); conditions: Compound concentration 1000.0 nM
[32] = biological target: Transient receptor potential cation channel subfamily M member 6 (Homo sapiens) (UniProt Q9BX84); conditions: Compound concentration 1000.0 nM
[33] = biological target: Cyclin-dependent kinase-like 2 (Homo sapiens) (UniProt Q92772); conditions: Compound concentration 1000.0 nM
[34] = test system: ALK tyrosine kinase receptor (Homo sapiens), Q9UM73 [C1156Y]; conditions: Compound concentration 1000.0 nM
[35] = biological target: Cyclin-dependent kinase 11B (Homo sapiens) (UniProt P21127); conditions: Compound concentration 1000.0 nM
[36] = biological target: Mitogen-activated protein kinase kinase kinase 15 (Homo sapiens) (UniProt Q6ZN16); conditions: Compound concentration 1000.0 nM
[37] = biological target: Activin receptor type-2A (Homo sapiens) (UniProt P27037); conditions: Compound concentration 1000.0 nM
[38] = biological target: Insulin receptor-related protein (Homo sapiens) (UniProt P14616); conditions: Compound concentration 1000.0 nM
[39] = biological target: MAP/microtubule affinity-regulating kinase 3 (Homo sapiens) (UniProt P27448); conditions: Compound concentration 1000.0 nM
[40] = biological target: Casein kinase II subunit alpha (Homo sapiens) (UniProt P68400); conditions: Compound concentration 1000.0 nM
[41] = biological target: Ribosomal protein S6 kinase alpha-1 (Homo sapiens) (UniProt Q15418); conditions: Compound concentration 1000.0 nM
[42] = biological target: Serine/threonine-protein kinase ULK3 (Homo sapiens) (UniProt Q6PHR2); conditions: Compound concentration 1000.0 nM

Chain of SRSF protein kinase 1 (Homo sapiens) (Q96SB4 whole entry): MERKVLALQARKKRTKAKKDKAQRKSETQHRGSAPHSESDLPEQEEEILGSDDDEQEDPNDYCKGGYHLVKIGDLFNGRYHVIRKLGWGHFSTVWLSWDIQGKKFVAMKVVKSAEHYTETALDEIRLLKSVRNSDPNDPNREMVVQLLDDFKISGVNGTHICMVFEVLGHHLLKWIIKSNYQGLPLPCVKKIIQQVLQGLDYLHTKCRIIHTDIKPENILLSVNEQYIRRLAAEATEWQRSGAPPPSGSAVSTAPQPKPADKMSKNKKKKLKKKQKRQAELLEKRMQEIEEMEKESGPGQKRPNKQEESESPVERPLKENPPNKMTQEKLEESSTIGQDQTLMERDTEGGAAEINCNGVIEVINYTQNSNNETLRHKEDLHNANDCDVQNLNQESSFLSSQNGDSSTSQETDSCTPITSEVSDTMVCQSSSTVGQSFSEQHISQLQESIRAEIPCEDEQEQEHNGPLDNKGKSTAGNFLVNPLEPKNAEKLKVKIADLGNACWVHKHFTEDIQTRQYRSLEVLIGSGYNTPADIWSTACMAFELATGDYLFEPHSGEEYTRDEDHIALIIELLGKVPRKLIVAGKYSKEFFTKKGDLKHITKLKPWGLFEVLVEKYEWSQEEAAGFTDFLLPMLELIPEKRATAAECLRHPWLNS
Chain of 5-hydroxytryptamine receptor 5A (Homo sapiens) (P47898 whole entry): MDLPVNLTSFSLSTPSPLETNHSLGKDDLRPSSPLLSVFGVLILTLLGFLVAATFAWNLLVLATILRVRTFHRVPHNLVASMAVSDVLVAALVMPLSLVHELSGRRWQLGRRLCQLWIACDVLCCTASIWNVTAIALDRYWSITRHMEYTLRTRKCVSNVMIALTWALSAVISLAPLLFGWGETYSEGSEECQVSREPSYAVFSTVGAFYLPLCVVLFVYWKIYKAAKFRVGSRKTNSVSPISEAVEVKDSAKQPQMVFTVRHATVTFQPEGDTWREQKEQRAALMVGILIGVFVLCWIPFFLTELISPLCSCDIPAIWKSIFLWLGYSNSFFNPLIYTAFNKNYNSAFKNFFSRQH
Chain of 3-phosphoinositide-dependent protein kinase 1 (Homo sapiens) (O15530 whole entry, canonical isoform): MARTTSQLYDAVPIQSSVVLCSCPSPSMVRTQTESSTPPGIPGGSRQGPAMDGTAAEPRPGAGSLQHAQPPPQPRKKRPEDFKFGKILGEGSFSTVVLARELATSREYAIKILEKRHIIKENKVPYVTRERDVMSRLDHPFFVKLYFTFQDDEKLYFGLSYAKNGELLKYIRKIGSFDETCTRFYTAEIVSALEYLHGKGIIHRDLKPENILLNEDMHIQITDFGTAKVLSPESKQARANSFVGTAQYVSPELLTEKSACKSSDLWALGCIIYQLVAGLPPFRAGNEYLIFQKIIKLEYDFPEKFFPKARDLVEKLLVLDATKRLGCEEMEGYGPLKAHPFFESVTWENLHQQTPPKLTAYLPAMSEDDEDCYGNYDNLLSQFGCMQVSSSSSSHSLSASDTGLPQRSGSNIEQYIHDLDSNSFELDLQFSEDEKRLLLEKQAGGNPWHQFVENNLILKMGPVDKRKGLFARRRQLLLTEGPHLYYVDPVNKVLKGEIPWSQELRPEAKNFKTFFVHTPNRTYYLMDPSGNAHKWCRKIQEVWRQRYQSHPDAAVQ
Chain of Serine/threonine-protein kinase Nek3 (Homo sapiens) (P51956 whole entry): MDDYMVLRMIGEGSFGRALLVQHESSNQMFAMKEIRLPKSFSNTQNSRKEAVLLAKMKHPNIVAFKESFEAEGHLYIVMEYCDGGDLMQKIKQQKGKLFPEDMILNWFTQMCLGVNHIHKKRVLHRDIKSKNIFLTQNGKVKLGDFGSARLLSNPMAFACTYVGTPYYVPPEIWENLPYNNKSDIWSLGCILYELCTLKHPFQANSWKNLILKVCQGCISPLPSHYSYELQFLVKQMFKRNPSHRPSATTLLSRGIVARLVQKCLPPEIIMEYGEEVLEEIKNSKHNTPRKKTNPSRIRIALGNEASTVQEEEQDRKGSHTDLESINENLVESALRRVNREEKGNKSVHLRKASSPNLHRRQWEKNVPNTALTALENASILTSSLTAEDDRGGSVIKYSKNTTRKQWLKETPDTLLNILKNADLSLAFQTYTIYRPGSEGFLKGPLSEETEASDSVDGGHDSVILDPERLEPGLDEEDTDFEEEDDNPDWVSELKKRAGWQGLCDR
Chain of ALK tyrosine kinase receptor (Homo sapiens), Q9UM73 [C1156Y] (Q9UM73 whole entry C1156Y, looked up): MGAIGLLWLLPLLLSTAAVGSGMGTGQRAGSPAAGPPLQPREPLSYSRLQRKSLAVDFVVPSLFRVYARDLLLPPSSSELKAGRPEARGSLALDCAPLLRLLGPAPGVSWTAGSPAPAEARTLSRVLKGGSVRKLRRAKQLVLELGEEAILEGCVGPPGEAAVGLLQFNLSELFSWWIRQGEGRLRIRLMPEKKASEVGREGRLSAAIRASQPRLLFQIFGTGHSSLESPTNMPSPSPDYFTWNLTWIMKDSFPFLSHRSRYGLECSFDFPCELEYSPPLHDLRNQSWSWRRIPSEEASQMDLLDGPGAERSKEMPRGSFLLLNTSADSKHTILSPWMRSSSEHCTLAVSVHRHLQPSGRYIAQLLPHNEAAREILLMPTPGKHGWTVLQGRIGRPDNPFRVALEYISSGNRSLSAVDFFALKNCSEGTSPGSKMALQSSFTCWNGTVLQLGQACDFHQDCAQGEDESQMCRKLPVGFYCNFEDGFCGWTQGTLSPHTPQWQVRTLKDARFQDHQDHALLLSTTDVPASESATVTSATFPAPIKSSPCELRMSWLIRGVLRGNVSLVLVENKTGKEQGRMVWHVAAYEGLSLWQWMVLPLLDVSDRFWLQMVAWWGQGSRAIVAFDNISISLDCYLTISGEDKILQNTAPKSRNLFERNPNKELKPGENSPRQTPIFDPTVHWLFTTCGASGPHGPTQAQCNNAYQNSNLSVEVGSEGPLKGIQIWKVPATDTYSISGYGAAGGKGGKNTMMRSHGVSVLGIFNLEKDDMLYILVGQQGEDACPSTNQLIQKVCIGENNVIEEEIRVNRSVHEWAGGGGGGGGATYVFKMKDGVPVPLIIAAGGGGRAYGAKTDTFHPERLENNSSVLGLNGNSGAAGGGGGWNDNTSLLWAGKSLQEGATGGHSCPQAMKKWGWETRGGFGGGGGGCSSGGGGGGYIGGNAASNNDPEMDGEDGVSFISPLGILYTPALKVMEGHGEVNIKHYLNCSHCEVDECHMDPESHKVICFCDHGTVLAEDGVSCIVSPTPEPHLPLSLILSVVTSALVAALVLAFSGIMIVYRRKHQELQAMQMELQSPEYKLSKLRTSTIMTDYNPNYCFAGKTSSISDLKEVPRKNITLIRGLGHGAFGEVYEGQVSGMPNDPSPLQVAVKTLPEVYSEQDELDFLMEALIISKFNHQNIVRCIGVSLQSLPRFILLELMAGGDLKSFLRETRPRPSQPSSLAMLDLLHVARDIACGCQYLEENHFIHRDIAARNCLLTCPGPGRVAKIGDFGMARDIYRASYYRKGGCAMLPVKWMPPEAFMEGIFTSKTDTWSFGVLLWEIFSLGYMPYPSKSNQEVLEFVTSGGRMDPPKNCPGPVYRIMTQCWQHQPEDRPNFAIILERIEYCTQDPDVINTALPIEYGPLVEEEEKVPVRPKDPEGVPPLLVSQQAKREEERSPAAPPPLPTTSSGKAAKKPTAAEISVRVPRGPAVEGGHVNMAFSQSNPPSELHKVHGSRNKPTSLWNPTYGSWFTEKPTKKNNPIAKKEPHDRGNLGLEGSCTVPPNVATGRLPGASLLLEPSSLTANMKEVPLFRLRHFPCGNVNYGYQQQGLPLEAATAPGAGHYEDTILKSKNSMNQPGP
Chain of MAP/microtubule affinity-regulating kinase 3 (Homo sapiens) (P27448 whole entry, looked up): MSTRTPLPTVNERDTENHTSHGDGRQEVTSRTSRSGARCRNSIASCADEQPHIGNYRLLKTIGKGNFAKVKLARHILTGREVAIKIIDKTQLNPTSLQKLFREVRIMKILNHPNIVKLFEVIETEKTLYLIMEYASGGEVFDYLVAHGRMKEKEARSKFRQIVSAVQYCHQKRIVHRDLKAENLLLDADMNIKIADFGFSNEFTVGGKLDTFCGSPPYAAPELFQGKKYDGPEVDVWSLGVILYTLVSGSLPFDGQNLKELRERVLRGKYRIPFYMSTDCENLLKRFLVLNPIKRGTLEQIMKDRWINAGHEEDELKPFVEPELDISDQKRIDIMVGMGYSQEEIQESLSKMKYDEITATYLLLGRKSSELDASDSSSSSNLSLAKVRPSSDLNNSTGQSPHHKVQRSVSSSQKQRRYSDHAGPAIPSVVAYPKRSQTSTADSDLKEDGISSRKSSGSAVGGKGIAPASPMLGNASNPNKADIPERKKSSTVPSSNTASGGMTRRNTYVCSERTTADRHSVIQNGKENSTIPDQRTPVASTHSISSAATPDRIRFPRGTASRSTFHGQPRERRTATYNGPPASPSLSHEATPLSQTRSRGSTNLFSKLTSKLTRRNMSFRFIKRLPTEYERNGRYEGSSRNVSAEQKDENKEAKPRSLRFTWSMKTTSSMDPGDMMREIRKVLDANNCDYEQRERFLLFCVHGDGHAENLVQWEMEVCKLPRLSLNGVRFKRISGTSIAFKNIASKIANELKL
Chain of Casein kinase II subunit alpha (Homo sapiens) (P68400 whole entry, looked up): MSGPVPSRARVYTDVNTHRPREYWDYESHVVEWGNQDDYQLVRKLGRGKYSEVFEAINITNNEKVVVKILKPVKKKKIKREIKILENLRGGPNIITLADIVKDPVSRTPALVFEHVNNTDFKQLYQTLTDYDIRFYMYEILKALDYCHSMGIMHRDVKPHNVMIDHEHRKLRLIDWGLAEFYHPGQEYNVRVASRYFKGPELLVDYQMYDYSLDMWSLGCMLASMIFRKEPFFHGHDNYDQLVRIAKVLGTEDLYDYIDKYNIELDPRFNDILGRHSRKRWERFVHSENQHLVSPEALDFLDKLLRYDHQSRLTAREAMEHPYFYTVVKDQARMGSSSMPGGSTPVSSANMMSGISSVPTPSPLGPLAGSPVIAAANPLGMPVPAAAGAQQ

Cc1nc(Cc2cccc(C(F)(F)F)c2)sc1-c1ccc(C(N)=O)nc1 [TP-024n]
inactive: residual activity [1] 100% | residual activity [2] 61% | residual activity [3] 100% | residual activity [4] 82% | residual activity [5] 88% | residual activity [6] 100% | residual activity [7] 100% | residual activity [8] 75% | residual activity [9] 83% | residual activity [10] 82% | inhibition [11] -5.68% | residual activity [12] 100% | residual activity [13] 100% | residual activity [14] 100% | residual activity [15] 83% | residual activity [16] 72% | inhibition [17] 8.38% | inhibition [18] 3.99% | residual activity [19] 81% | residual activity [20] 100% | residual activity [21] 75% | residual activity [22] 100% | residual activity [23] 100% | residual activity [24] 73% | inhibition [25] 14.8% | residual activity [26] 67% | residual activity [27] 77% | inhibition [28] 9.72% | residual activity [29] 99% | residual activity [30] 100% | residual activity [31] 100% | residual activity [32] 88% | residual activity [33] 92% | residual activity [34] 68% | residual activity [35] 97% | residual activity [36] 100% | residual activity [37] 85% | residual activity [38] 100% | residual activity [39] 86% | residual activity [40] 100% | residual activity [41] 79% | residual activity [42] 100%

Cc1cc(-n2nc(Cc3cc(F)cc(C(F)(F)F)c3)nc2C)ccc1C(N)=O [TP-024]
inactive: residual activity [1] 100% | residual activity [2] 100% | residual activity [3] 98% | residual activity [4] 100% | residual activity [5] 100% | residual activity [6] 100% | residual activity [7] 100% | residual activity [8] 81% | residual activity [9] 100% | residual activity [10] 100% | inhibition [11] 3.15% | residual activity [12] 55% | residual activity [13] 100% | residual activity [14] 100% | residual activity [15] 97% | residual activity [16] 92% | inhibition [17] 9.76% | inhibition [18] 7.99% | residual activity [19] 100% | residual activity [20] 100% | residual activity [21] 100% | residual activity [22] 100% | residual activity [23] 100% | residual activity [24] 86% | inhibition [25] 12.8% | residual activity [26] 88% | residual activity [27] 98% | inhibition [28] 14.4% | residual activity [29] 100% | residual activity [30] 100% | residual activity [31] 95% | residual activity [32] 100% | residual activity [33] 100% | residual activity [34] 100% | residual activity [35] 100% | residual activity [36] 100% | residual activity [37] 100% | residual activity [38] 100% | residual activity [39] 100% | residual activity [40] 100% | residual activity [41] 100% | residual activity [42] 100%
